One data set deals with Yersinia pestis (NR-641). Briefly: microbe, parasite or virus in culture. It is filed as cell-based. To be noted: read-out: MIC Yersinia pestis (NR-641).
For data set [1], the system named is Fusarium oxysporum (DSM62316). Description: MIC assay. It is filed as cell-based. To be noted: two-fold serial dilutions in liquid media, n = 2–3.
Data set [2] concerns Brucella melitensis (NR-256). Briefly: microbe, parasite or virus in culture. It is filed as cell-based. To be noted: read-out: MIC Brucella melitensis (NR-256).
Data set [3] has as its system Mycobacterium tuberculosis H37Rv (mc^26230). Description: MIC assay (REMA). To be noted: REMA microdilution, n = 2–3. It counts as cell-based. Background: Broth dilution looks for growth in wells or tubes with falling amounts of substance.
The test system of data set [4] is kidney epithelial cell line A498. Conditions: human.
Data set [5] has as its system Enterobacter cloacae (DSM30054). Description: MIC assay. It is filed as cell-based. Conditions: two-fold serial dilutions in liquid media, n = 2–3.
Data set [6] has as its system Candida tropicalis (DSM9419). Briefly: MIC assay. Conditions: two-fold serial dilutions in liquid media, n = 2–3. It is filed as cell-based.
Data set [7] deals with Shigella flexneri (ATCC12022). Description: MIC assay. It counts as cell-based. To be noted: two-fold serial dilutions in liquid media, n = 2–3.
In a further data set the test system is S. aureus ATCC6538P. Briefly: MIC assay. It counts as cell-based, Staphylococcus aureus. Conditions: Staphylococcus aureus, ATCC6538P; two-fold serial dilutions in liquid media; n = 2–3.
Data set [8] has as its system Salmonella enterica (CIP80.39). Description: MIC assay. It is filed as cell-based. Conditions: two-fold serial dilutions in liquid media, n = 2–3.
The subject of another data set is C. albicans DSM10697. Description: MIC assay. It counts as cell-based, Candida albicans. To be noted: Candida albicans, DSM10697; two-fold serial dilutions in liquid media; n = 2–3.
Data set [9] has as its system Helicobacter pylori (ATCC43504). Description: MIC assay. It counts as cell-based. To be noted: two-fold serial dilutions in liquid media, n = 2–3.
Data set [10] deals with Mycobacterium abscessus R(CIP 104536^T). Briefly: MIC assay (REMA). To be noted: REMA microdilution, n = 2–3. It is filed as cell-based.

Consider one compound from article PMC11047580, “Design and Synthesis of Novel Amino and Acetamidoaurones with Antimicrobial Activities” (Antibiotics, 2024).

Values after ≈ are worked out from the molar mass of the structure shown. A value given as a limit tells only on which side of the number the result lay.

The melting point is the temperature, or range, at which the solid turns liquid. The compound `CC(=O)Nc1ccc2c(c1)C(=O)/C(=C/c1cccc(OCc3ccccc3)c1)O2` [Compound 10, (Z)-N-(2-(3-(benzyloxy)benzylidene)-3-oxo-2,3-dihydrobenzofuran-5-yl)acetamide] returned a melting point of 204.5 °C. For the same compound, in the data set on Yersinia pestis (NR-641), the MIC is 12.5 µM (≈ 4.82 µg/mL). The same compound displayed an MIC in data set [1] of 25 µM (≈ 9.64 µg/mL). Moreover, in data set [2], the MIC stood at 25 µM (≈ 9.64 µg/mL). In data set [3] (Mycobacterium tuberculosis, H37RV), this compound gave an MIC of more than 100 µM. For the same compound, the “MIC Mycobacterium tuberculosis H37Rv (mc^26230)” value in data set [3] was “inactive”. For the same compound, the “TI with MIC of 0.78 µM, A498” value in [4] stood at 510.5. In data set [5] (Enterobacter cloacae, DSM30054), this compound came in with an MIC of more than 100 µM. Besides, the MIC in data set [5] was more than 100 µM. Also, in [6], the MIC worked out at 100 µM (≈ 38.5 µg/mL). Moreover, the MIC in data set [7] turned out to be 25 µM (≈ 9.64 µg/mL). Moreover, the MIC in the data set with S. aureus ATCC6538P is 12.5 µM (≈ 4.82 µg/mL). In addition, the MIC in data set [8] turned out to be 25 µM (≈ 9.64 µg/mL). In the data set with C. albicans DSM10697, this compound displayed an MIC of 50 µM (≈ 19.3 µg/mL). In data set [9], this compound returned an MIC of 12.5 µM (≈ 4.82 µg/mL). Besides, the MIC in [10] (Mycobacteroides abscessus, CIP104536, R morphotype) was more than 100 µM. Besides, in [10] (R morphotype), the “MIC Mycobacterium abscessus R(CIP 104536^T)” value was “inactive”.
